Source: patent US20140350050A1, “PYRIDINE COMPOUNDS AS INHIBITORS OF KINASE” (TELIGENE LTD., priority 2011, published 2014)
Read-outs that look alike come from different tables or passages of the source.

Legend:
[1] = target: T1, BAF3-EML4-ALK stable cell line (Homo sapiens, UniProt Q9UM73); test: BAF3-EML4-ALK cell assay (MTT cell proliferation); assay type: cell-based; settings: 72 hours, read-out: BAF3-EML4-ALK Cell (IC50 grading)
T1 construct: fused on or other part: Q9HC35 (Echinoderm microtubule-associated protein-like 4)
Description: BAF3-EML4-ALK Cell Assay:
A method of establishing BAF3-EML4-ALK stable cell line: Transfer 5×10^6 BAF3 cells to a new tube, pellet the cells, and remove PBS by aspiration.; Resuspend the cells in 1 ml electroporation buffer, this provides 5×10^6 of cells; Transfer 200 μl of cell suspension to EP tube, add 5 ug DNA, flip and place it on ice for 10 min; Pipet the 200 μl cell suspension into 2 mm electroporation cuvette; Place the cuvette into shockpod, close the lid, and press the PULSE button; Set parameters: Expentional decay pulse: VOL=200 V; CAP=900 uF, RES=1000Ω; Transfer all cells from electroporation cuvette to 6 well plate, adding 2 ml DMEMF12 containing 5 ng/ml IL3, 24 h later, replace the medium with DMEM F12 containing 2 μg/ml blasticidin S and 5 ng/ml IL3, maintain for 3 days; change the medium with DMEM F12 containing 2 ug/ml blasticidin S and 2.5 ng/ml IL3, maintain 3 days; change the medium with DMEM F12 containing 2 ug/Ml blasticidin S, maintain to culture.
MTT Cell proliferation assay: 5×10^3 per well cell with 100 μl medium was seeded in 96-well plate; 24 hours later, 100 μl fresh medium with various concentration of compounds; After the cells were treated by compounds for 72 hours, add 20 μl MTT (5 mg/ml) into each wells; The plate is incubated at 37° C. for 4 hours; Centrifuge the plate at 800 g for 10 mins, Aspirated the medium, add 150 μl DMSO into each well. Shake plates gently for 10 mins, Measure the absorbance at 570 nm on plate reader; IR=(WC−WT)/WC.

[2] = tested on: EML4-ALK-BAF3 cell line xenograft; assay type: in vivo; settings: Table C, 40 mg/kg oral gavage once daily
Source text: A representative protocol for the in vivo experiment is as followed to establish the subcutaneous EML4-ALK-BAF3 cell line xenograft model in nude mice and to evaluate the in vivo therapeutic efficacy of the compounds: Animals: Male Balb/c nude mice (6˜8 weeks old) were obtained from SLAC Laboratory Animal, Shanghai, China. Animals were maintained under SPF conditions in sterile filter top cages and housed on HEPA-filtered ventilated racks. Animals received sterile rodent chow and water ad libitum. Cell line: BAF3-EML4-ALK stable cell line, the BAF3 cell which could expressed fusion oncogene EML4-ALK. S.c. Xenograft Models in Athymic Mice: Cells for implantation into athymic mice were harvested and pelleted by centrifugation at 1200 r/min for 5 min. Cells were washed once and resuspended in sterile PBS buffer with 5×10^6 in 200 μl. Then cells were implanted s.c. into the right scapular region of each mouse and allowed to grow to 200˜300 mm^3 before the administration of compound. Preparation of the Dose Formulation: each compound was suspensioned in 0.5% CMC-Na. Randomization: When tumor volumes approach 200˜300 mm^3, the mice will be randomized into 5 groups according to the tumor volume. The day will be denoted as D1 and the treatments will be started at this day. Administered: Dose will be administered with oral gavage needle once daily for number of days. Treatment of compounds administered in 0.5% CMC-Na by p.o. gavage was initiated when tumors were 200˜300 mm^3 in volume. Observations: After inoculation, the animals will be checked daily for morbidity and mortality. At the time of routine monitoring, the animals will be checked for any effects of tumor growth and treatments on normal behavior such as mobility, body weight gain/loss (body weights will be measured twice weekly or every other day), eye/hair matting and any other abnormal effect. Death and observed clinical signs will be recorded on the basis of the numbers of animals within each subset. Tumor Size Measurements: Tumor volume was determined by measurement with electronic vernier calipers every 3 days and tumor volume was calculated as the product of its length×width^2×0.5. Effect studies: Tumor volume was expressed on indicated days as the mean tumor volume ±SD. […] Significant differences between the treated versus the control groups (p<0.05) were determined using t test. At study endpoint, after blood collection, mice were practiced euthanasia by cervical dislocation, the tumor tissue was collected first, then abdominal cavity was cut open, liver and spleen were excised, then weight after the gallblader was removed respectively. Organ weight and Organ/body weight ratios between the treated versus the control groups were compared. Ratios was calculated as follows: Ratios=Organ weight/(body weight-tumor weight). Both organ weight and Organ/body weight ratios were also expressed as mean±SD, and significant differences between the treated versus the control groups (p<0.05) were determined using t test.

T1 sequence (Q9UM73 whole entry, change not shown, the tested form may be a part): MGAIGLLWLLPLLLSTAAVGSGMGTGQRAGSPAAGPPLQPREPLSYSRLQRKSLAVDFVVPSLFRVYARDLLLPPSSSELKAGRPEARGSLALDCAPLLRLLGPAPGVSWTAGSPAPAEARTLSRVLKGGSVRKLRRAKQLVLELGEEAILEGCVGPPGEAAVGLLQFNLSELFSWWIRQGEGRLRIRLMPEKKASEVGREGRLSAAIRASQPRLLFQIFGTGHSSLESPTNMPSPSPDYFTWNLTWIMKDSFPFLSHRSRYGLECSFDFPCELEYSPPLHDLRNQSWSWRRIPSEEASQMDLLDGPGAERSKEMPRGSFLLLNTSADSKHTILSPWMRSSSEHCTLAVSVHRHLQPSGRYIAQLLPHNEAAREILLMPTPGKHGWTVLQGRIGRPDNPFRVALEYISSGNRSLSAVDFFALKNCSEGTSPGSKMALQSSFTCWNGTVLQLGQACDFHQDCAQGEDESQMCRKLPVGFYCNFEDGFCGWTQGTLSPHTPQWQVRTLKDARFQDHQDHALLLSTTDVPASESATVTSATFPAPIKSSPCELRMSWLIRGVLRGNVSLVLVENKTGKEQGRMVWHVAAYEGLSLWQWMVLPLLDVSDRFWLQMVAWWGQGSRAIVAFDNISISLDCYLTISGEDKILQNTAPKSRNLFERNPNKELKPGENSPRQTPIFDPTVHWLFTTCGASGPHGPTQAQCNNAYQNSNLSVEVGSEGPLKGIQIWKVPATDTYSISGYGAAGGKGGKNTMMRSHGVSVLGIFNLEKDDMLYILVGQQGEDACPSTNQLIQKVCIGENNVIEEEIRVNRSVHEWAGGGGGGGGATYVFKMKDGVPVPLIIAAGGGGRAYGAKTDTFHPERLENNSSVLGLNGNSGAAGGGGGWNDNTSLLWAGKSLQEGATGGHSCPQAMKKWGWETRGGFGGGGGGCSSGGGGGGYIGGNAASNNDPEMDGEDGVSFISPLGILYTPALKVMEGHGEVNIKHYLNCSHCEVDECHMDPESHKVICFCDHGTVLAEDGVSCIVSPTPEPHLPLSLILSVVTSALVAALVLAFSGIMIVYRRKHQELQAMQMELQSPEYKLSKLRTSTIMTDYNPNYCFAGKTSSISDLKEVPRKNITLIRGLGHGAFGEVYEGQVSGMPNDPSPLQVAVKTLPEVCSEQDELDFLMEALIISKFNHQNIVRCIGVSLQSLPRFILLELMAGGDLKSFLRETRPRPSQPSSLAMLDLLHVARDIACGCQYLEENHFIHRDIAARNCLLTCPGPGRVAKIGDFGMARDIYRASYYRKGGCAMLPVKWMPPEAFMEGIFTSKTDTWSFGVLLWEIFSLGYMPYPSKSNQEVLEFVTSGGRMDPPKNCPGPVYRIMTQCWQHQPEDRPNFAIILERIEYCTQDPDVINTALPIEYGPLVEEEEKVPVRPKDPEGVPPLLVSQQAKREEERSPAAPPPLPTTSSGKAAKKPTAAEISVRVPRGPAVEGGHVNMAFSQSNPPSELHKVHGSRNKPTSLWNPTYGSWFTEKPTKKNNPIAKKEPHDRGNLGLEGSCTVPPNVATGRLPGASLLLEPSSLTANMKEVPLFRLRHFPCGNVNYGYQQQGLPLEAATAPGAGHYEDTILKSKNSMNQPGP

[2H]C([2H])([2H])C([2H])([2H])N1CCC(n2cc(-c3cnc(N)c(O[C@H](C)c4c(Cl)ccc(F)c4Cl)c3)cn2)CC1 [Compound 22, (R)-3-(1-(2,6-dichloro-3-fluorophenyl)ethoxy)-5-(1-(1-d5-ethylpiperidin-4-yl)-1H-pyrazol-4-yl)pyridin-2-amine]
GI50 [1]: ≤ 100 nM
Tumor growth inhibition (TGI, %) ([2]; day 2): 22.58%
Tumor growth inhibition (TGI, %) ([2]; day 5): 53.72%
Tumor growth inhibition (TGI, %) ([2]; day 8): 66.61%
Tumor growth inhibition (TGI, %) ([2]; day 11): 82.97%
Tumor growth inhibition (TGI, %) ([2]; day 14): 87.64%
